Test results: paper PMC4705222, “Identification of a Catalase-Phenol Oxidase in Betalain Biosynthesis in Red Amaranth (Amaranthus cruentus)” (Frontiers in Plant Science, 2016)
One block for each molecule: values may come before it.

Assays:
[1] = target: T1, AcCATPO (Amaranthus cruentus, UniProt A0A2Z0PTH5); test: catalase activity, H2O2 decrease at […] nm; assay type: biochemical; settings: read-out: % inhibition at 1 mM
T1 sequence (A0A2Z0PTH5 1-492): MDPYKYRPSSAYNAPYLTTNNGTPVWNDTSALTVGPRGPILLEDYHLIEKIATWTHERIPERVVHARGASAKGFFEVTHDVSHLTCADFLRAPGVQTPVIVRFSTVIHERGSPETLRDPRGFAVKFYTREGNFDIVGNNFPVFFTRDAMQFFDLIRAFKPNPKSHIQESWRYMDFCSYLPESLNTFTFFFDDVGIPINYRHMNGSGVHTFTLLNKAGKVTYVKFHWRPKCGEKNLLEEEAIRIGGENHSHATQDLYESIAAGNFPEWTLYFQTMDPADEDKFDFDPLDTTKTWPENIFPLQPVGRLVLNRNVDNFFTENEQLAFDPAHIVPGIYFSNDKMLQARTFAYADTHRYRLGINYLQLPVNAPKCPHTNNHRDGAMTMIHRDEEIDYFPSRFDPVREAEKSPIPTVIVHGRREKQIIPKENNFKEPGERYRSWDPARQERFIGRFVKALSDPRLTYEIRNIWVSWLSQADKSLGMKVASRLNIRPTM

[2] = target: T1, AcCATPO; test: monophenolase activity toward L-tyrosine, absorbance […] nm; assay type: biochemical; settings: L-tyrosine substrate, 0.057 mM L-DOPA cofactor, no added CuSO4
[3] = target: T1, AcCATPO; assay type: biochemical
[4] = target: T1, AcCATPO; test: catalase activity, H2O2 decrease at […] nm; assay type: biochemical; settings: not significant, H2O2 substrate (14 mM in standard assay), pH 7.0, 20 °C
[5] = target: T1, AcCATPO; test: diphenolase activity toward L-DOPA, absorbance […] nm and in-gel staining; assay type: biochemical; settings: 1 mM L-DOPA substrate, pH 8.0, 60 °C, chelator
[6] = target: T1, AcCATPO; test: monophenolase activity toward L-tyrosine, absorbance […] nm; assay type: biochemical; settings: L-tyrosine substrate, 0.057 mM L-DOPA cofactor, no added CuSO4, chelator
[7] = target: T1, AcCATPO; test: as above; assay type: biochemical; settings: activation, not inhibition, L-tyrosine substrate, 0.057 mM L-DOPA cofactor, no added CuSO4
[8] = target: T1, AcCATPO; test: diphenolase activity toward L-DOPA, absorbance […] nm and in-gel staining; assay type: biochemical; settings: activation, not inhibition, 1 mM L-DOPA substrate, pH 8.0, 60 °C
[9] = substrate: N[C@@H](Cc1ccc(O)cc1)C(=O)O; test: purified protein; assay type: biochemical, Amaranthus cruentus; settings: monophenolase, 0.057 mM L-DOPA as cofactor, pH 8.0, 60 °C
[10] = substrate: N[C@@H](Cc1ccc(O)c(O)c1)C(=O)O; test: purified protein; assay type: biochemical, Amaranthus cruentus; settings: diphenolase, pH 8.0, 60 °C

inhibition at 1000 µM [1]: ~90%
Molecule: NNC(=O)c1ccncc1 [isoniazid]

% decrease at 1 mM [2]: ~ 15%
Molecule: O=c1cc(CO)occ1O [kojic acid]

Molecule: NC(=S)Nc1ccccc1 [phenylthiocarbamide]
% inhibition at 1 mM [3]: all inhibitors except tropolone, had a significantly inhibitory effect on the monophenolase activity

% decrease at 1 mM [4]: < 25%
Molecule: O=C(O)c1ccccc1O [salicylic acid]

% loss of activity at 1 mM [5]: ~ 99%
% loss of activity at 1 mM [6]: ~ 80%
Molecule: CCN(CC)C(=S)S [sodium diethyldithiocarbamate]

Molecule: O=c1cccccc1O [tropolone]
% increase of activity at 1 mM [7]: ~ 25%
% increase of activity at 1 mM [8]: ~ 55%

B1: AcCATPO (Amaranthus cruentus) (protein)
chain: MDPYKYRPSSAYNAPYLTTNNGTPVWNDTSALTVGPRGPILLEDYHLIEKIATWTHERIPERVVHARGASAKGFFEVTHDVSHLTCADFLRAPGVQTPVIVRFSTVIHERGSPETLRDPRGFAVKFYTREGNFDIVGNNFPVFFTRDAMQFFDLIRAFKPNPKSHIQESWRYMDFCSYLPESLNTFTFFFDDVGIPINYRHMNGSGVHTFTLLNKAGKVTYVKFHWRPKCGEKNLLEEEAIRIGGENHSHATQDLYESIAAGNFPEWTLYFQTMDPADEDKFDFDPLDTTKTWPENIFPLQPVGRLVLNRNVDNFFTENEQLAFDPAHIVPGIYFSNDKMLQARTFAYADTHRYRLGINYLQLPVNAPKCPHTNNHRDGAMTMIHRDEEIDYFPSRFDPVREAEKSPIPTVIVHGRREKQIIPKENNFKEPGERYRSWDPARQERFIGRFVKALSDPRLTYEIRNIWVSWLSQADKSLGMKVASRLNIRPTM
notes: native, purified from red-violet leaves by native-PAGE gel slice; homotrimer ca. 170 kDa, subunit ca. 58 kDa; cDNA encodes 492 residues; peptides GPILLEDYHLIEK, APGVQTPVIVR, FSTVIHER, ENNFKEPGER, TFAYADTHR
Km [9]: 200 µM
Vmax [9]: 0.079 µM/min
kcat [9]: 0.04 s⁻¹
kcat/Km [9]: 200 M⁻¹ s⁻¹
Km [10]: 600 µM
Vmax [10]: 0.75 µM/min
kcat [10]: 0.36 s⁻¹
kcat/Km [10]: 600 M⁻¹ s⁻¹
